Where two headings read alike, the source gives them in different places.
Assays:
Assay type in all cases: in vivo
[1] = test system: Surinam grass (Brachiaria decumbens); assay: Test B pre/postemergence; conditions: Urochloa decumbens; for pest or weed control at 62 g/ha: 62 g ai/ha; for pest or weed control at 250 g/ha: 250 g ai/ha
How it was run: (§1)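 Pre: compound (non-phytotoxic solvent + surfactant) applied to freshly planted seeds. Post: same formulation sprayed on 2–18 cm plants, 1- to 4-leaf. Readout: visual control rating 0–100 vs controls, 13–15 d, greenhouse.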

[2] = test system: barnyardgrass (Echinochloa crus-galli); assay: Test B pre/postemergence; conditions: Echinochloa crus-galli; for pest or weed control at 62 g/ha: 62 g ai/ha; for pest or weed control at 250 g/ha: 250 g ai/ha
How it was run: as §1

[3] = test system: cocklebur (Xanthium strumarium); assay: Test B pre/postemergence; conditions: Xanthium strumarium; for pest or weed control at 62 g/ha: 62 g ai/ha; for pest or weed control at 250 g/ha: 250 g ai/ha
How it was run: as §1

corn (Zea mays) = assay: Test B pre/postemergence; conditions: Zea mays; for Corn plant response rating (crop injury, 0 = no effect, 100 = complete kill) at 250 g/ha: 250 g ai/ha
How it was run: as §1

[4] = test system: crabgrass (Digitaria sanguinalis); assay: Test B pre/postemergence; conditions: Digitaria sanguinalis; for pest or weed control at 62 g/ha: 62 g ai/ha; for pest or weed control at 250 g/ha: 250 g ai/ha
How it was run: as §1

[5] = test system: giant foxtail (Setaria faberii); assay: Test B pre/postemergence; conditions: Setaria faberi; for pest or weed control at 62 g/ha: 62 g ai/ha; for pest or weed control at 250 g/ha: 250 g ai/ha
How it was run: as §1

[6] = test system: lambsquarters (Chenopodium album); assay: Test B pre/postemergence; conditions: Chenopodium album; for pest or weed control at 62 g/ha: 62 g ai/ha; for pest or weed control at 250 g/ha: 250 g ai/ha
How it was run: as §1

[7] = test system: morningglory (Ipomoea coccinea); assay: Test B pre/postemergence; conditions: Ipomoea; for pest or weed control at 62 g/ha: 62 g ai/ha; for pest or weed control at 250 g/ha: 250 g ai/ha
How it was run: as §1

[8] = test system: pigweed (Amaranthus retroflexus); assay: Test B pre/postemergence; conditions: Amaranthus retroflexus; for pest or weed control at 62 g/ha: 62 g ai/ha; for pest or weed control at 250 g/ha: 250 g ai/ha
How it was run: as §1

[9] = test system: velvetleaf (Abutilon theophrasti); assay: Test B pre/postemergence; conditions: Abutilon theophrasti; for pest or weed control at 62 g/ha: 62 g ai/ha; for pest or weed control at 250 g/ha: 250 g ai/ha
How it was run: as §1

[10] = test system: wheat (Triticum aestivum); assay: Test B pre/postemergence; conditions: Triticum aestivum; for plant injury at 62 g/ha: 62 g ai/ha; for plant injury at 250 g/ha: 250 g ai/ha
How it was run: as §1

[11] = test system: blackgrass (Alopecurus myosuroides); assay: Test B postemergence; conditions: Alopecurus myosuroides, post-emergence
How it was run: as §1

wild oat (Avena fatua) = assay: Test B postemergence; conditions: Avena fatua, post-emergence
How it was run: as §1

[12] = test system: barnyardgrass (Echinochloa crus-galli); assay: Test B flooded paddy test; conditions: Echinochloa crus-galli, Flood, 1000 g ai/ha; scale 0 (no effect) to 100 (complete control); read-out: Plant response rating, Barnyardgrass
How it was run: (§2)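 Plants were grown to the 2-leaf stage before treatment, then kept in a greenhouse for 13 to 15 days. Injury was rated visually against untreated controls on a 0 to 100 scale, where 0 is no effect and 100 is complete control.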

[13] = test system: duck salad (Heteranthera limosa); assay: Test B flooded paddy test; conditions: Heteranthera limosa, Flood, 1000 g ai/ha; scale 0 to 100; read-out: Plant response rating, Ducksalad
How it was run: as §2

rice (Oryza sativa) = assay: Test B flooded paddy test; conditions: Oryza sativa, Flood, 1000 g ai/ha; scale 0 to 100; read-out: Plant response rating, Rice
How it was run: as §2

[14] = test system: umbrella sedge (Cyperus difformis); assay: Test B flooded paddy test; conditions: Cyperus difformis, Flood, 1000 g ai/ha; scale 0 to 100; read-out: Plant response rating, Sedge, Umbrella
How it was run: as §2

[15] = pre-emergence, Preemergence, scale 0 to 100 (0 no effect, 100 complete control), read-out: Plant response rating, Barnyardgrass
[16] = pre-emergence, Preemergence, scale 0 to 100 (0 no effect, 100 complete control), read-out: Plant response rating, Wheat

## CCOC(=O)c1nc(C2CC2)nc(N)c1Br [Compound 1, ethyl 6-amino-5-bromo-2-cyclopropyl-4-pyrimidinecarboxylate]
[1]; post-emergence, Postemergence, scale 0 to 100 (0 no effect, 100 complete control), read-out: Surinam Grass plant response rating
  pest or weed control at 62 g/ha: 60%
[1]; post-emergence, Postemergence, scale 0 to 100, read-out: Plant response rating, Surinam Grass
  pest or weed control at 250 g/ha: 90%
[1]; pre-emergence, Preemergence, scale 0 to 100 (0 no effect, 100 complete control), read-out: Plant response rating, Surinam Grass
  pest or weed control at 250 g/ha: 80%
[1]; pre-emergence, Preemergence, scale 0 to 100, 0 no effect, 100 complete control, read-out: Plant response rating, Surinam Grass
  pest or weed control at 62 g/ha: 50%
[2]; post-emergence, Postemergence, scale 0 to 100 (0 no effect, 100 complete control), read-out: Barnyardgrass plant response rating
  pest or weed control at 62 g/ha: 50%
[2]; post-emergence, Postemergence, scale 0 to 100, read-out: Plant response rating, Barnyardgrass
  pest or weed control at 250 g/ha: 90%
[2]; [15]
  pest or weed control at 62 g/ha: 60%
  pest or weed control at 250 g/ha: 90%
[3]; post-emergence, Postemergence, scale 0 to 100 (0 no effect, 100 complete control), read-out: Cocklebur plant response rating
  pest or weed control at 62 g/ha: 90%
[3]; post-emergence, Postemergence, scale 0 to 100, read-out: Plant response rating, Cocklebur
  pest or weed control at 250 g/ha: 90%
[3]; pre-emergence, Preemergence, scale 0 to 100, 0 no effect, 100 complete control, read-out: Plant response rating, Cocklebur
  pest or weed control at 62 g/ha: 90%
[3]; pre-emergence, Preemergence, scale 0 to 100 (0 no effect, 100 complete control), read-out: Plant response rating, Cocklebur
  pest or weed control at 250 g/ha: 100%
Corn (Zea mays); post-emergence, Postemergence, 62 g ai/ha, scale 0 to 100 (0 no effect, 100 complete control), read-out: Corn plant response rating
  plant injury at 62 g/ha: 30%
Corn (Zea mays); post-emergence, Postemergence, scale 0 to 100
  Corn plant response rating (crop injury, 0 = no effect, 100 = complete kill) at 250 g/ha: 70%
Corn (Zea mays); pre-emergence, Preemergence, 62 g ai/ha, scale 0 to 100, 0 no effect, 100 complete control
  Corn plant response rating (crop injury, 0 = no effect, 100 = complete kill) at 62 g/ha: 20%
Corn (Zea mays); pre-emergence, Preemergence, scale 0 to 100 (0 no effect, 100 complete control)
  Corn plant response rating (crop injury, 0 = no effect, 100 = complete kill) at 250 g/ha: 80%
[4]; post-emergence, Postemergence, scale 0 to 100 (0 no effect, 100 complete control), read-out: Crabgrass plant response rating
  pest or weed control at 62 g/ha: 70%
[4]; post-emergence, Postemergence, scale 0 to 100, read-out: Plant response rating, Crabgrass
  pest or weed control at 250 g/ha: 90%
[4]; pre-emergence, Preemergence, scale 0 to 100, 0 no effect, 100 complete control, read-out: Plant response rating, Crabgrass
  pest or weed control at 62 g/ha: 90%
[4]; pre-emergence, Preemergence, scale 0 to 100 (0 no effect, 100 complete control), read-out: Plant response rating, Crabgrass
  pest or weed control at 250 g/ha: 90%
[5]; post-emergence, Postemergence, scale 0 to 100 (0 no effect, 100 complete control), read-out: Foxtail, Giant plant response rating
  pest or weed control at 62 g/ha: 50%
[5]; post-emergence, Postemergence, scale 0 to 100, read-out: Plant response rating, Foxtail, Giant
  pest or weed control at 250 g/ha: 80%
[5]; pre-emergence, Preemergence, scale 0 to 100 (0 no effect, 100 complete control), read-out: Plant response rating, Foxtail, Giant
  pest or weed control at 250 g/ha: 90%
[5]; pre-emergence, Preemergence, scale 0 to 100, 0 no effect, 100 complete control, read-out: Plant response rating, Foxtail, Giant
  pest or weed control at 62 g/ha: 30%
[6]; post-emergence, Postemergence, scale 0 to 100 (0 no effect, 100 complete control), read-out: Lambsquarters plant response rating
  pest or weed control at 62 g/ha: 100%
[6]; post-emergence, Postemergence, scale 0 to 100, read-out: Plant response rating, Lambsquarters
  pest or weed control at 250 g/ha: 100%
[6]; pre-emergence, Preemergence, scale 0 to 100, 0 no effect, 100 complete control, read-out: Plant response rating, Lambsquarters
  pest or weed control at 62 g/ha: 100%
[6]; pre-emergence, Preemergence, scale 0 to 100 (0 no effect, 100 complete control), read-out: Plant response rating, Lambsquarters
  pest or weed control at 250 g/ha: 100%
[7]; post-emergence, Postemergence, scale 0 to 100 (0 no effect, 100 complete control), read-out: Morningglory plant response rating
  pest or weed control at 62 g/ha: 90%
[7]; post-emergence, Postemergence, scale 0 to 100, read-out: Plant response rating, Morningglory
  pest or weed control at 250 g/ha: 100%
[7]; pre-emergence, Preemergence, scale 0 to 100, 0 no effect, 100 complete control, read-out: Plant response rating, Morningglory
  pest or weed control at 62 g/ha: 90%
[7]; pre-emergence, Preemergence, scale 0 to 100 (0 no effect, 100 complete control), read-out: Plant response rating, Morningglory
  pest or weed control at 250 g/ha: 100%
[8]; post-emergence, Postemergence, scale 0 to 100 (0 no effect, 100 complete control), read-out: Pigweed plant response rating
  pest or weed control at 62 g/ha: 90%
[8]; post-emergence, Postemergence, scale 0 to 100, read-out: Plant response rating, Pigweed
  pest or weed control at 250 g/ha: 100%
[8]; pre-emergence, Preemergence, scale 0 to 100, 0 no effect, 100 complete control, read-out: Plant response rating, Pigweed
  pest or weed control at 62 g/ha: 90%
[8]; pre-emergence, Preemergence, scale 0 to 100 (0 no effect, 100 complete control), read-out: Plant response rating, Pigweed
  pest or weed control at 250 g/ha: 100%
[9]; post-emergence, Postemergence, scale 0 to 100 (0 no effect, 100 complete control), read-out: Velvetleaf plant response rating
  pest or weed control at 62 g/ha: 90%
[9]; post-emergence, Postemergence, scale 0 to 100, read-out: Plant response rating, Velvetleaf
  pest or weed control at 250 g/ha: 90%
[9]; pre-emergence, Preemergence, scale 0 to 100, 0 no effect, 100 complete control, read-out: Plant response rating, Velvetleaf
  pest or weed control at 62 g/ha: 90%
[9]; pre-emergence, Preemergence, scale 0 to 100 (0 no effect, 100 complete control), read-out: Plant response rating, Velvetleaf
  pest or weed control at 250 g/ha: 100%
[10]; post-emergence, Postemergence, scale 0 to 100 (0 no effect, 100 complete control), read-out: Wheat plant response rating
  plant injury at 62 g/ha: 30%
[10]; post-emergence, Postemergence, scale 0 to 100, read-out: Plant response rating, Wheat
  plant injury at 250 g/ha: 70%
[10]; [16]
  plant injury at 62 g/ha: 30%
  plant injury at 250 g/ha: 60%
[11]; 62 g ai/ha, scale 0 to 100 (0 no effect, 100 complete control), read-out: Blackgrass plant response rating
  pest or weed control at 62 g/ha: 40%
[11]; 250 g ai/ha, scale 0 to 100, read-out: Plant response rating, Blackgrass
  pest or weed control at 250 g/ha: 70%
Wild oat (Avena fatua); 62 g ai/ha, scale 0 to 100 (0 no effect, 100 complete control), read-out: Oat, Wild plant response rating
  pest or weed control at 62 g/ha: 20%
Wild oat (Avena fatua); 250 g ai/ha, scale 0 to 100, read-out: Plant response rating, Oat, Wild
  pest or weed control at 250 g/ha: 60%
[12]
  pest or weed control at 1000 g/ha: 80%
[13]
  pest or weed control at 1000 g/ha: 80%
Rice (Oryza sativa)
  plant injury at 1000 g/ha: 70%
[14]
  pest or weed control at 1000 g/ha: 20%

Source: patent publication US8802597B2, “Herbicidal pyrimidines” (E I du Pont de Nemours and Company, priority 2003, dated 2014)
